We go through 14 compounds from US7179814B2, “Agents for controlling plant pests” (priority 1998, dated 2007).

The test system of assay [1] is Phytophthora infestans. Type of assay: in vivo. To be noted: single active compound.
The test system of assay [2] is Diabrotica balteata larvae in soil. The assay is described as follows: Critical concentration test/soil insects, Diabrotica balteata. Type of assay: in vivo. The following applies: 20.0 ppm in soil, 7 days after infestation; for pest or weed control at 20 ppm: Diabrotica balteata, 168 h, read-out: Kill in %. The method, then: (§1) To produce a suitable preparation of active compound, 1 part by weight of the active compound or the active compound mixture is mixed with the stated amounts of solvent and emulsifier, and the concentrate is diluted with water to the desired concentration.
(§2) The active compound preparation is mixed intimately with soil. Here, the concentration of the active compound in the preparation is almost irrelevant; only the amount by weight of active compound or active compound mixture per volume unit of soil, which is stated in ppm (mg/l), matters.
Soil is filled into 0.5 l pots and these are allowed to stand at 20° C. Immediately after preparation, 5 pre-germinated maize corns are placed into each pot. After 2 days, the test insects are placed into the treated soil. After a further 7 days, the kill in % is determined. 100% means that all test insects have been killed; 0% means that none of the test insects have been killed.

Assay [3] has as its system caterpillars of the diamondback moth (Plutella xylostella). The assay is described as follows: Plutella test (cabbage leaf dip). The format is in vivo. The method, then: (§3) To produce a suitable preparation of active compound, 1 part by weight of an active compound or an active compound combination is mixed with the stated amounts of solvent and emulsifier, and the concentrate is diluted with water to the desired concentration.
Cabbage leaves (Brassica oleracea) are treated by being dipped into the preparation of active compound of the desired concentration and are populated with caterpillars of the diamondback moth (Plutella xylostella) while the leaves are still moist.
After the desired period of time, the kill in % is determined 100% means that all caterpillars have been killed; 0% means that none of the caterpillars have been killed.

Assay [4] concerns green rice leaf hopper (Nephotettix cincticeps). Description: Nephotettix test (rice seedling dip). The format is in vivo. The procedure: as §3
Rice seedlings (Oryza sativa) are treated by being dipped into the active compound preparation of the desired concentration and are populated with the green rice leaf hopper (Nephotettix cincticeps) while the leaves are still moist.
After the desired period of time, the kill in % is determined. 100% means that all the leaf hoppers have been killed; 0% means that none of the leaf hoppers have been killed.

Assay [5] has as its system Spodoptera frugiperda. The assay is described as follows: Critical concentration test/soil insects, Spodoptera frugiperda. Type of assay: in vivo. The following applies: 120 h, 20.00 ppm in soil, 5 days after infestation, read-out: Kill in %. The procedure:
as §1, §2
Soil is filled into 0.5 l pots and these are allowed to stand at 20° C. Immediately after preparation, 3 pre-germinated maize corns are placed into each pot. After the maize corns have emerged, boring sleeves are placed onto the pots. 9 days after preparation, the maize is populated with the test insects. After a further 5 days, the kill in % is determined. 100% means that all test insects have been killed; 0% means that the number of insects which are still alive is the same as for the untreated control.

The test system of assay [6] is Pyrenophora teres. The assay is described as follows: Pyrenophora teres test (barley)/protective. The format is in vivo. To be noted: single active compound. The procedure:
(§4) To produce a suitable preparation of active compound, 1 part by weight of active compound or active compound combination is mixed with the stated amounts of solvent and emulsifier, and the concentrate is diluted with water to the desired concentration, or a commercial formulation of active compound or active compound combination is diluted with water to the desired concentration.
To test for protective activity, young plants are sprayed with the active compound preparation at the stated application rate. After the spray coating has dried on, the plants are sprayed with a conidia suspension of Pyrenophora teres. The plants remain in an incubation cabin at 20° C. and 100% relative atmospheric humidity for 48 hours.
The plants are then placed in a greenhouse at a temperature of approximately 20° C. and a relative atmospheric humidity of approximately 80%.
(§5) Evaluation is carried out 7 days after the inoculation. 0% means an efficacy which corresponds to that of the control, whereas an efficacy of 100% means that no infection is observed.

The test system of assay [7] is Botrytis cinerea. Description: Botrytis test (bean)/protective. To be noted: single active compound. The format is in vivo. The method, then:
as §4
To test for protective activity, young plants are sprayed with the active compound preparation at the stated application rate. After the spray coating has dried on, 2 small pieces of agar colonized by Botrytis cinerea are placed onto each leaf. The inoculated plants are placed in a dark chamber at approximately 20° C. and 100% relative atmospheric humidity.
2 days after the inoculation, the size of the disease spots on the leaves is evaluated. 0% means an efficacy which corresponds to that of the control, whereas an efficacy of 100% means that no infection is observed.

The test system of assay [8] is Phaedon cochleariae larvae. The assay is described as follows: Critical concentration test/root-systemic action, Phaedon cochleariae. The format is in vivo. The following applies: 72 h, 20.00 ppm in soil, root-systemic, 3 days after infestation, read-out: Kill in %. The method, then: as §1, §2
Soil is filled into 250 ml pots and these are planted with cabbage (Brassica oleracea). The active compound or the active compound combination can thus be taken up by the plant roots from the soil and transported into the leaves.
After 7 days, the leaves are populated with the abovementioned test animals. After a further 3 days, the kill in % is determined. 100% means that all test insects have been killed; 0% means that the number of insects which are still alive is the same as in the untreated control.

The subject of assay [9] is Erysiphe graminis f.sp. hordei. The assay is described as follows: Erysiphe test (barley)/protective. The format is in vivo. The following applies: single active compound. The method, then: as §4
(§6) To test for protective activity, young plants are sprayed with the preparation of active compound at the stated application rate.
After the spray coating has dried on, the plants are dusted with spores of Erysiphe graminis f.sp. hordei.
(§7) The plants are placed in a greenhouse at a temperature of approximately 20° C. and a relative atmospheric humidity of approximately 80% to promote the development of mildew pustules.
as §5

The subject of assay [10] is larvae of the mustard beetle (Phaedon cochleariae). The assay is described as follows: Phaedon larvae test (cabbage leaf dip). The format is in vivo. The procedure:
as §3
Cabbage leaves (Brassica oleracea) are treated by being dipped into the preparation of active compound of the desired concentration and are populated with larvae of the mustard beetle (Phaedon cochleariae) while the leaves are still moist.
After the desired period of time, the kill in % is determined. 100% means that all beetle larvae have been killed; 0% means that none of the beetle larvae have been killed.

The subject of assay [11] is Sphaerotheca fuliginea. The assay is described as follows: Sphaerotheca test (cucumber)/protective. Type of assay: in vivo. The following applies: 10 g/ha, single active compound, 10 days after inoculation. The procedure:
as §4
To test for protective activity, young plants are sprayed with the commercial active compound preparation at the stated application rate. After the spray coating has dried on, the plants are inoculated with an aqueous spore suspension of Sphaerotheca fuliginea. The plants are then placed in a greenhouse at approximately 23° C. and a relative atmospheric humidity of approximately 70%.
(§8) Evaluation is carried out 10 days after the inoculation. 0% means an efficacy which corresponds to that of the control, whereas an efficacy of 100% means that no infection is observed.

Assay [12] relates to Fusarium culmorum. The assay is described as follows: Fusarium culmorum test (wheat)/seed treatment. The following applies: 75 g/ha, dry seed dressing, approximately 3 weeks after sowing. The format is in vivo. The procedure: The active compounds are applied as a dry dressing. They are prepared by extending the active compound in question with ground minerals to give a finely pulverulent mixture which ensures even distribution on the surface of the seeds.
For the dressing, the infected seeds are shaken with the dressing in a closed glass bottle for 3 minutes.
2×100 seeds of the wheat are sown at a depth of 1 cm into standard soil, and the wheat is cultivated in a greenhouse at a temperature of approximately 18° C. and at a relative atmospheric humidity of approximately 95% in seed containers receiving 15 hours of light per day.
The evaluation of the plants for symptoms is carried out approximately 3 weeks after sowding. 0% means an efficacy which corresponds to that of the control, whereas an efficacy of 100% means that no infection is observed.

Assay [13] deals with Heliothis virescens caterpillars. Description: Heliothis virescens test (soya bean shoot dip). Type of assay: in vivo. The method, then:
as §3
Soya bean shoots (Glycine max) are treated by being dipped into the active compound preparation of the desired concentration and are populated with Heliothis virescens caterpillars while the leaves are still moist.
After the desired period of time, the kill in % is determined. 100% means that all caterpillars have been killed; 0% means that none of the caterpillars have been killed.

Assay [14] concerns green peach aphid. The assay is described as follows: Myzus test (cabbage leaf dip). The format is in vivo, Myzus (green peach aphid). To be noted: concentration 0.1 %. The method, then: as §3
Cabbage leaves (Brassica oleracea) which are heavily infested by the green peach aphid are treated by being dipped into the active compound preparation of the desired concentration.
After the desired period of time, the kill in % is determined. 100% means that all aphids have been killed; 0% means that none of the aphids have been killed.

Assay [15] relates to Erysiphe graminis f.sp. tritici. The assay is described as follows: Erysiphe test (wheat)/protective. Type of assay: in vivo. To be noted: single active compound. The method, then:
as §4, §6
After the spray coating has dried on, the plants are dusted with spores of Erysiphe graminis f.sp. tritici.
as §7, §5

The subject of assay [16] is Puccinia recondita. The assay is described as follows: Puccinia test (wheat)/protective. The format is in vivo. To be noted: 62.5 g/ha, 10 days after inoculation. The procedure:
as §4
To test for protective activity, young plants are sprayed with the active compound preparation at the stated application rate. After the spray coating has dried on, the plants are sprayed with a conidia suspension of Puccinia recondita. The plants remain in an incubation cabin at 20° C. and 100% relative atmospheric humidity for 48 hours.
The plants are then placed in a greenhouse at a temperature of approximately 20° C. and a relative atmospheric humidity of 80% to promote the development of rust pustules.
as §8

The mark [17] stands for this setting: 62.5 g/ha, 7 days after inoculation.

Where two headings read alike, the source gives them in different places.

Compound `Cc1ccc(C(C)NC(=O)C(NC(=O)OC(C)C)C(C)C)cc1` (racemic) [SZX722] registered an Efficacy in % in [1] (10 g/ha) of 88%.
Consider `CN(C)C(=S)SSC(=S)N(C)C` [TMTD], for which, in assay [2], the pest or weed control at 20 ppm came out at 0%. The Kill in % in assay [3] (concentration 0.1 %) and in assay [4] (concentration 0.1 %) was 0% throughout.
Turning to `CO/C=C(/C(=O)OC)c1ccccc1Oc1cc(Oc2ccccc2C#N)ncn1` [azoxystrobin], the pest or weed control at 20 ppm in assay [2], in assay [5] and in [8] was 0% throughout. The Efficacy in % was determined as 74% in assay [1] (10 g/ha) and 42% in [7] (40 g/ha). Besides, the “Efficacy in % calculated/found” value in [6] (18.75 g/ha) is reported as 0%.
Regarding `CC(C)(C)C(O)C(Oc1ccc(-c2ccccc2)cc1)n1cncn1` (centres unmarked) [bitertanol], the pest or weed control at 20 ppm in assay [2], in assay [5] and in [8] was 0% in each case. Besides, the Efficacy in % in assay [7] (500 g/ha) amounted to 30%. Besides, the “Efficacy in % calculated/found” value in assay [9] (18.75 g/ha) was 0%.
Take `CC(C1CC1)C(O)(Cn1cncn1)c1ccc(Cl)cc1` (centres unmarked) [cyproconazole]: the pest or weed control at 20 ppm in assay [2] and in assay [5] was 0% each time. Also, the Kill in % in assay [10] (concentration 0.004 %) is reported as 10%; in [3] (concentration 0.004 %), 0%; in assay [13] (concentration 0.004 %), 0%. The Efficacy in % is given as 70% in assay [11] and 1% in assay [12].
For `N#Cc1c[nH]cc1-c1cccc(Cl)c1Cl` [fenpiclonil], the pest or weed control at 20 ppm in assay [2], in assay [5] and in assay [8] was 0% in each case. Also, the Kill in % in assay [3] (concentration 0.1 %) and in assay [14] was 0% throughout.
Take `N#Cc1c[nH]cc1-c1cccc2c1OC(F)(F)O2` [fludioxonil]: the pest or weed control at 20 ppm in assay [2] came out at 0%. For the same compound, the Efficacy in % is 0% in assay [12] and 40% in assay [7] (10 g/ha, 2 days after inoculation). The Kill in % in assay [4] (concentration 0.02 %) is 0%.
Turning to `CO/N=C(/C(=O)OC)c1ccccc1COc1ccccc1C` [kresoxim-methyl], the pest or weed control at 20 ppm in assay [2] worked out at 0%. Moreover, the Kill in % in [10] (concentration 0.1 %) is listed as 0%. The results for the “Efficacy in % calculated/found” value in assay [15] (18.75 g/ha), in assay [15] (setting [17]) and in [9] (setting [17]) were 43%, 79% and 0%, respectively.
As to `COCC(=O)N(c1c(C)cccc1C)C(C)C(=O)OC` (centres unmarked) [metalaxyl], the pest or weed control at 20 ppm in assay [2], in [5] and in assay [8] was 0% each time. In addition, the Kill in % in assay [14] and in [4] (concentration 0.1 %) was 0% throughout.
On to `O=C(Nc1ccccc1)N(Cc1ccc(Cl)cc1)C1CCCC1` [pencycuron], for which, in assay [2], the pest or weed control at 20 ppm stood at 0%. The Kill in % in assay [3] (concentration 0.1 %), in assay [14] and in assay [4] (concentration 0.1 %) was 0% in each case.
`CCCC1COC(Cn2cncn2)(c2ccc(Cl)cc2Cl)O1` (centres unmarked) [propiconazole]: the pest or weed control at 20 ppm in assay [2], in assay [5] and in [8] was 0% in each case. Further, the Efficacy in % is given as 5% in assay [1] (500 g/ha, 3 days after inoculation) and 75% in assay [16]. For the same compound, the “Efficacy in % calculated/found” value in assay [6] (setting [17]) is 0%. The Kill in % in [4] (concentration 0.004 %) was 0%.
Consider `CC(C)(C)C(O)(CCc1ccc(Cl)cc1)Cn1cncn1` (centres unmarked) [tebuconazole], for which the pest or weed control at 20 ppm in assay [2], in assay [5] and in assay [8] was 0% each time. For the same compound, in assay [6] (setting [17]), the “Efficacy in % calculated/found” value is on record as 50%.
Turning to `CC(C)(C)C(O)C(Oc1ccc(Cl)cc1)n1cncn1` (centres unmarked) [triadimenol], the pest or weed control at 20 ppm in assay [2], in [5] and in assay [8] was 0% throughout. In addition, the “Efficacy in % calculated/found” value in assay [6] (18.75 g/ha) is reported as 40%.
As to tolylfluanid, the Kill in % in [2], in [3] (concentration 0.02 %), in [4] (concentration 0.02 %) and in assay [13] (concentration 0.02 %) was 0% each time. The same compound registered an Efficacy in % in [1] (50 g/ha) of 34%.
